In patent US20180055032A1, “ODORS FOR PSYLLID TRAPPING, REPELLING AND CONTROL” (The Regents of the University of California, priority 2011, published 2018):

How the values were obtained:
Type in all cases: cell-based, Diaphorina citri
[1] = system: neuron 7A (rhinarial plate on flagellomere 7); experiment: single-sensillum electrophysiology, odor response of neuron 7A; details: for odor response (frequency of action potentials during stimulus minus baseline), 7A: Table 1, odor diluted to 1%, 50 μL in cartridge; for response to ultra-prolonged activators, 7A: Table 3, 10^−2 in paraffin oil, 50 μL, odor puff of 0.5 sec; as to all read-outs here: key: 0, no response; +, >50 spikes/second; ++, >100 spikes/second; +++, >150 spikes/second
[2] = system: neuron 6C (rhinarial plate on flagellomere 6); experiment: single-sensillum electrophysiology, odor response of neuron 6C; details: for odor response (frequency of action potentials during stimulus minus baseline), 6C: Table 1, odor diluted to 1%, 50 μL in cartridge; for response to ultra-prolonged activators, 6C: Table 3, 10^−2 in paraffin oil, 50 μL, odor puff of 0.5 sec; as to response to ultra-prolonged activators, 6C: key: 0, no response; +, >50 spikes/second; ++, >100 spikes/second; +++, >150 spikes/second
[3] = system: neuron 4B (rhinarial plate on flagellomere 4); details: for odor response (frequency of action potentials during stimulus minus baseline), 4B: Table 1, odor diluted to 1%, 50 μL in cartridge; for response to ultra-prolonged activators, 4B: Table 3, 10^−2 in paraffin oil, 50 μL, odor puff of 0.5 sec
[4] = system: neuron 2B (rhinarial plate on flagellomere 2); experiment: single-sensillum electrophysiology, odor response of neuron 2B; details: for odor response (frequency of action potentials during stimulus minus baseline), 2B: Table 1, odor diluted to 1%, 50 μL in cartridge; for response to ultra-prolonged activators, 2B: Table 3, 10^−2 in paraffin oil, 50 μL, odor puff of 0.5 sec; as to response to ultra-prolonged activators, 2B: key: 0, no response; +, >50 spikes/second; ++, >100 spikes/second; +++, >150 spikes/second
[5] = system: neuron 7B (rhinarial plate on flagellomere 7); details: for odor response (frequency of action potentials during stimulus minus baseline), 7B: Table 1, odor diluted to 1%, 50 μL in cartridge; for response to ultra-prolonged activators, 7B: Table 3, 10^−2 in paraffin oil, 50 μL, odor puff of 0.5 sec
[6] = system: neuron 6B (rhinarial plate on flagellomere 6); experiment: single-sensillum electrophysiology, odor response of neuron 6B; details: for odor response (frequency of action potentials during stimulus minus baseline), 6B: Table 1, odor diluted to 1%, 50 μL in cartridge; for response to ultra-prolonged activators, 6B: Table 3, 10^−2 in paraffin oil, 50 μL, odor puff of 0.5 sec
[7] = system: neuron 4C (rhinarial plate on flagellomere 4); experiment: single-sensillum electrophysiology, odor response of neuron 4C; details: for odor response (frequency of action potentials during stimulus minus baseline), 4C: Table 1, odor diluted to 1%, 50 μL in cartridge; for response to ultra-prolonged activators, 4C: Table 3, 10^−2 in paraffin oil, 50 μL, odor puff of 0.5 sec
[8] = system: neuron 2C (rhinarial plate on flagellomere 2); experiment: single-sensillum electrophysiology, odor response of neuron 2C; details: for odor response (frequency of action potentials during stimulus minus baseline), 2C: Table 1, odor diluted to 1%, 50 μL in cartridge; for response to ultra-prolonged activators, 2C: Table 3, 10^−2 in paraffin oil, 50 μL, odor puff of 0.5 sec
[9] = system: neuron 4A (rhinarial plate on flagellomere 4); experiment: single-sensillum electrophysiology, odor response of neuron 4A; details: for odor response (frequency of action potentials during stimulus minus baseline), 4A: Table 1, odor diluted to 1%, 50 μL in cartridge; for response to ultra-prolonged activators, 4A: Table 3, 10^−2 in paraffin oil, 50 μL, odor puff of 0.5 sec
[10] = system: neuron 6A (rhinarial plate on flagellomere 6); experiment: single-sensillum electrophysiology, odor response of neuron 6A; details: for odor response (frequency of action potentials during stimulus minus baseline), 6A: Table 1, odor diluted to 1%, 50 μL in cartridge; for response to ultra-prolonged activators, 6A: Table 3, 10^−2 in paraffin oil, 50 μL, odor puff of 0.5 sec
[11] = system: neuron 2A (rhinarial plate on flagellomere 2); experiment: single-sensillum electrophysiology, odor response of neuron 2A; details: for odor response (frequency of action potentials during stimulus minus baseline), 2A: Table 1, odor diluted to 1%, 50 μL in cartridge; for response to ultra-prolonged activators, 2A: Table 3, 10^−2 in paraffin oil, 50 μL, odor puff of 0.5 sec; as to all read-outs here: key: 0, no response; +, >50 spikes/second; ++, >100 spikes/second; +++, >150 spikes/second
[12] = system: neuron 7C (rhinarial plate on flagellomere 7); experiment: single-sensillum electrophysiology, odor response of neuron 7C; details: for odor response (frequency of action potentials during stimulus minus baseline), 7C: Table 1, odor diluted to 1%, 50 μL in cartridge; for response to ultra-prolonged activators, 7C: Table 3, 10^−2 in paraffin oil, 50 μL, odor puff of 0.5 sec

Molecule	odor response (frequency of action potentials during stimulus minus baseline), 7A [1]	odor response (frequency of action potentials during stimulus minus baseline), 6C [2]	odor response (frequency of action potentials during stimulus minus baseline), 4B [3]	odor response (frequency of action potentials during stimulus minus baseline), 2B [4]	odor response (frequency of action potentials during stimulus minus baseline), 7B [5]	odor response (frequency of action potentials during stimulus minus baseline), 6B [6]	odor response (frequency of action potentials during stimulus minus baseline), 4C [7]	odor response (frequency of action potentials during stimulus minus baseline), 2C [8]	odor response (frequency of action potentials during stimulus minus baseline), 4A [9]	odor response (frequency of action potentials during stimulus minus baseline), 6A [10]	odor response (frequency of action potentials during stimulus minus baseline), 2A [11]	odor response (frequency of action potentials during stimulus minus baseline), 7C [12]	other results
C=CC(=C)CCC=C(C)C [myrcene]	0	0	+ (+, >50 spikes/second)	0	0	+ (+, >50 spikes/second)	0	++ (++, >100 spikes/second)	0	0	0	0	–
CC(=O)c1ccccc1 [acetophenone]	0	0	++ (++, >100 spikes/second)	0	0	++ (++, >100 spikes/second)	0	0	0	0	0	+ (+, >50 spikes/second)	–
(−)-limonene	0	0	+ (+, >50 spikes/second)	0	0	+ (+, >50 spikes/second)	0	0	0	0	0	0	–
CCCCCCO [1-hexanol]	0	0	+ (+, >50 spikes/second)	0	0	+ (+, >50 spikes/second)	0	0	0	0	0	0	response to ultra-prolonged activators, 7A [1]: 0; response to ultra-prolonged activators, 6C [2]: 0; response to ultra-prolonged activators, 4B [3]: + (+, >50 spikes/second); response to ultra-prolonged activators, 2B [4]: 0; response to ultra-prolonged activators, 7B [5]: 0; response to ultra-prolonged activators, 6B [6]: + (+, >50 spikes/second); response to ultra-prolonged activators, 4C [7]: 0; response to ultra-prolonged activators, 2C [8]: 0; response to ultra-prolonged activators, 4A [9]: 0; response to ultra-prolonged activators, 6A [10]: 0; response to ultra-prolonged activators, 2A [11]: 0; response to ultra-prolonged activators, 7C [12]: 0
CC1=CCC(C(C)C)=CC1 [γ-terpinene]	0	0	+++ (+++, >150 spikes/second)	0	0	++ (++, >100 spikes/second)	0	0	0	0	0	0	–
CC(C)=CCCC(C)CC=O (stereo not drawn) [citronellal]	0	0	0	0	0	0	0	+ (+, >50 spikes/second)	0	0	0	0	–
CC1=CC=C(C(C)C)CC1 [α-terpinene]	0	0	++ (++, >100 spikes/second)	0	0	++ (++, >100 spikes/second)	0	0	0	0	0	0	–
CCCCCCCCC=O [nonanal]	0	0	++ (++, >100 spikes/second)	0	0	++ (++, >100 spikes/second)	0	0	0	0	0	++ (++, >100 spikes/second)	response to ultra-prolonged activators, 7A [1]: 0; response to ultra-prolonged activators, 6C [2]: 0; response to ultra-prolonged activators, 4B [3]: ++ (++, >100 spikes/second); response to ultra-prolonged activators, 2B [4]: 0; response to ultra-prolonged activators, 7B [5]: 0; response to ultra-prolonged activators, 6B [6]: ++ (++, >100 spikes/second); response to ultra-prolonged activators, 4C [7]: 0; response to ultra-prolonged activators, 2C [8]: 0; response to ultra-prolonged activators, 4A [9]: 0; response to ultra-prolonged activators, 6A [10]: 0; response to ultra-prolonged activators, 2A [11]: 0; response to ultra-prolonged activators, 7C [12]: ++ (++, >100 spikes/second)
